In data set [1] the test system is breast carcinoma MDA-MB-231. The arrangement: method as in PMID 26101532. To be noted: MDA-MB-231, third of three values, order assumed; cited from earlier work.
Data set [2] deals with HeLa. The data set is described as follows: MTT antiproliferative assay, HeLa. The format is cell-based. To be noted: Homo sapiens, 72 h, no IC50 calculated when less than 50% inhibition at 10 μM. From the text: (§1) The antiproliferative activities of the prepared diterpene analogues were studied using an MTT assay on a panel of human adherent cancer lines, including cells from cervical (HeLa), breast (MDA-MB-231, MCF-7), and ovary cancers (A2780), as given in Figure 1 and Table S1 in the Supplementary Materials. A non-malignant fibroblast cell line (NIH/3T3) was also utilised to obtain preliminary information on the cancer selectivity of the tested compounds. Based on the obtained activities, some conclusions could be drawn regarding the structure–activity relationships (SARs). Since neither the key intermediate benzyl ester of hydroxylaldehyde 4 nor the N-Boc protected aminoalcohols (6, 7, 11, 12) or even compound 8 with a free carboxylic function exerted remarkable antiproliferative effects (except for 12 against A2780 ovarian cancer cells), we could conclude that the simultaneous presence of the ester function and the basic secondary amino function were essential for the inhibition of cell growth. […] All active molecules inhibited considerably the proliferation of non-malignant cells, which meant that most currently presented agents were not optimal for further investigations of their anticancer properties.
(§2) The growth-inhibitory effects of the isosteviol-based 1,3-aminoalcohols were determined by a standard MTT (3-(4,5-dimethylthiazol-2-yl)-2,5-diphenyltetrazolium bromide) assay on a panel containing five cell lines, including Hela (cervical cancer), MDA-MB-231 and MCF-7 (breast cancers), and A2780 ovarian cancer cells. All cell lines were purchased from the European Collection of Cell Cultures (Salisbury, UK). The cells were maintained in a minimal essential medium supplemented with 10% foetal bovine serum, 1% non-essential amino acids, and 1% penicillin–streptomycin at 37 °C in a humidified atmosphere containing 5% CO2. All media and supplements were obtained from Lonza Group Ltd. (Basel, Switzerland). Cancer cells were seeded into 96-well plates (5000 cells/well); after overnight incubation, the test compound was added in two different concentrations (10 µM and 30 µM) and incubated for another 72 h under cell-culturing conditions. In the next step, 20 μL of 5 mg/mL of an MTT solution was added to each well and incubated for a further 4 h. The medium was removed and the precipitated formazan crystals were dissolved in DMSO after 60 min of shaking at 37 °C. As a final step, the absorbance was measured at 545 nm by using a microplate reader. Untreated cells were included as controls. […] Two independent experiments were performed with five wells for each condition. Calculations were performed using the GraphPad Prism 10.0 software (GraphPad Software Inc., San Diego, CA, USA).

Data set [3] deals with MDA-MB-231. The data set can be described thus: MTT antiproliferative assay, MDA-MB-231. To be noted: Homo sapiens, 72 h, no IC50 calculated when less than 50% inhibition at 10 μM. The format is cell-based.
Description: as §1, §2

Data set [4] has as its system NIH/3T3. The data set can be described thus: MTT assay on non-malignant fibroblasts. It counts as cell-based. The settings on record: Mus musculus, NIH3T3, 72 h, no IC50 calculated when less than 50% inhibition at 10 μM.
Description: as §1, §2

Data set [5] concerns A2780. The data set is described as follows: MTT antiproliferative assay, A2780. It counts as cell-based. To be noted: Homo sapiens, 72 h, no IC50 calculated when less than 50% inhibition at 10 μM.
Description: as §1, §2

Data set [6] deals with MCF-7. The data set is described as follows: MTT antiproliferative assay, MCF-7. It counts as cell-based. To be noted: Homo sapiens, MCF7, 72 h, no IC50 calculated when less than 50% inhibition at 10 μM.
Description: as §1, §2

On to `COc1cccc2c1C(=O)c1c(O)c3c(c(O)c1C2=O)C[C@@](O)(C(=O)CO)C[C@@H]3O[C@H]1C[C@H](N)[C@H](O)[C@H](C)O1` [Adriamycin], for which the IC50 in data set [1] is 2.26 µM.
In turn, `C#CCOC(=O)[C@]1(C)CCC[C@@]2(C)C3CC[C@@]4(C)C[C@]3(CC[C@H]12)[C@H](CNCc1ccc(F)cc1)[C@H]4O` (stereo partly drawn) [Compound 14, (4R,4aS,6aS,7R,8R,9S,11bS)-Prop-2-yn-1-yl 7-(((4-fluorobenzyl)amino)methyl)-8-hydroxy-4,9,11b-trimethyltetradecahydro-6a,9-methanocyclohepta[a]naphthalene-4-carboxylate] had a melting point of 104 to 105 °C. For the same compound, the IC50 in data set [2] is 2.7 µM. Moreover, in data set [3], the IC50 is 2.23 µM. Further, the half-inhibitory concentration (IC50) in data set [4] was 5.92 µM. Besides, the IC50 in data set [5] was 1.36 µM. Also, the half-inhibitory concentration (IC50) in data set [6] is 1.54 µM.
With `C[C@]12CCC3[C@](CC[C@@H]4[C@](C)(C(=O)O)CCC[C@@]34C)(C1)[C@H](CNCc1ccc(F)cc1)[C@H]2O` (stereo partly drawn) [Compound 8, (4R,4aS,6aS,7R,8R,9S,11bS)-7-(((4-Fluorobenzyl)amino)methyl)-8-hydroxy-4,9,11b-trimethyltetradecahydro-6a,9-methanocyclohepta[a]naphthalene-4-carboxylic Acid], the melting point is 149 to 150 °C. Also, the half-inhibitory concentration (IC50) in data set [2] is above 10 µM. In data set [3], the half-maximal inhibitory concentration (IC50) was above 10 µM. The half-inhibitory concentration (IC50) in data set [4] was above 10 µM. Moreover, the half-maximal inhibitory concentration (IC50) in data set [5] is above 10 µM. Further, in data set [6], the IC50 is above 10 µM.
On to `C=CC(=O)OCCC(=O)OCCCCOC(=O)[C@]1(C)CCC[C@@]2(C)C3CC[C@@]4(C)C[C@]3(CC[C@H]12)[C@H](CN(Cc1ccc(F)cc1)C(=O)OC(C)(C)C)[C@H]4O` (stereo partly drawn) [Compound 12, (4R,4aS,6aS,7R,8R,9S,11bS)-4-((3-(Acryloyloxy)propanoyl)oxy)butyl 7-(((tert-butoxycarbonyl)(4-fluorobenzyl)amino)methyl)-8-hydroxy-4,9,11b-trimethyltetradecahydro-6a,9-methanocyclohepta[a]naphthalene-4-carboxylate], for which the concentration for half-maximal inhibition (IC50) in data set [2] was above 10 µM; in data set [3] it was above 10 µM; in data set [4] it was above 10 µM; in data set [5], 4.78 µM; in data set [6], above 10 µM.
For the compound `C[C@]12CCC3[C@](CC[C@@H]4[C@](C)(C(=O)OCc5ccccc5)CCC[C@@]34C)(C1)[C@H](C=O)[C@H]2O` (stereo partly drawn) [Compound 4, (4R,4aS,6aS,7S,8R,9S,11bS)-Benzyl 7-formyl-8-hydroxy-4,9,11b-trimethyltetradecahydro-6a,9-methanocyclohepta[a]naphthalene-4-carboxylate], the IC50 in data set [2], in data set [3], in data set [4], in data set [5] and in data set [6] was above 10 µM in each case.
Turning to `COC(=O)[C@]1(C)CCC[C@@]2(C)C3CC[C@@]4(C)C[C@]3(CC[C@H]12)[C@H](CN[C@H](C)c1ccc2ccccc2c1)[C@H]4O` (stereo partly drawn) [Compound 27, (4R,4aS,6aS,7R,8R,9S,11bS)-Methyl 8-hydroxy-4,9,11b-trimethyl-7-((((R)-1-(naphthalen-2-yl)ethyl)amino)methyl)tetradecahydro-6a,9-methanocyclohepta[a]naphthalene-4-carboxylate], the IC50 in data set [2] is 3.4 µM; in data set [3] it was 4.11 µM; in data set [4] it was 5.03 µM; in data set [5] it was 3.26 µM; in data set [6], 2.43 µM.
The corresponding values for `CC[C@H](NC[C@@H]1[C@@H](O)[C@@]2(C)CCC3[C@]1(CC[C@@H]1[C@](C)(C(=O)OCc4ccccc4)CCC[C@@]31C)C2)c1ccccc1` (stereo partly drawn) [Compound 17, (4R,4aS,6aS,7R,8R,9S,11bS)-Benzyl 8-hydroxy-4,9,11b-trimethyl-7-((((S)-1-phenylpropyl)amino)methyl)tetradecahydro-6a,9-methanocyclohepta[a]naphthalene-4-carboxylate] are 4.45 µM, 4.04 µM, 1.95 µM, 3.78 µM and 4.74 µM.
In the same order, the values of `C[C@@H](NC[C@@H]1[C@@H](O)[C@@]2(C)CCC3[C@]1(CC[C@@H]1[C@](C)(C(=O)OCc4ccccc4)CCC[C@@]31C)C2)c1ccc(F)cc1` (stereo partly drawn) [Compound 15, (4R,4aS,6aS,7R,8R,9S,11bS)-Benzyl 7-((((R)-1-(4-fluorophenyl)ethyl)amino)methyl)-8-hydroxy-4,9,11b-trimethyltetradecahydro-6a,9-methanocyclohepta[a]naphthalene-4-carboxylate] are 4.18 µM, 4.28 µM, 4.8 µM, 3.91 µM and 4.2 µM.
